In US5334612A, “Pharmaceutical compositions containing as active substance sulphur-containing carboxylic acids and their use in combating retroviruses” (priority 1988, dated 1994):

How the values were obtained:
[1] = Acute toxicity in the mouse (LD 50, Miller and Tainter); details: in vivo, oral
Description: The acute toxicity of α-lipoic acid in the mouse (expressed in the LD 50 mg/kg; Method after Miller and Tainter: Proc. Soc. Exper. Biol. a. Med. 57 (1944) 261) is, for example, in oral application above 400 mg/kg body weight, that of dihydrolipoic acid above 200 mg/kg body weight mouse.

[2] = animal experiments, rats and mice; cited from earlier work
HIV-1 = assay: Reduction of infectious viruses (HIV-1) in cell culture supernatant in vitro; assay type: cell-based
Description: For example the compounds of Formula I have a good, growth-inhibiting effect on HIV (type 1 and 2) which may be shown in vitro for example in the following virological-cell biological test processes:
3. Determination of reverse transcriptase in culture supernatant
4. Determination of the p24 antigen in culture supernatant
Thus, for example, a single dose of 0.035 mg/ml of compound I (for example alpha-lipoic acid, racemate) reduces the number of infectious viruses (for example HIV-1) in cell culture supernatant from 100% in the positive control to 0%.
For the in vitro trials the active substance of Formula I is used, for example in benzyl alcohol as solvent.
For in vitro investigations into the replication behavior of retroviruses, in particular HIV, it is for example possible to use the following substrates:
1. Virus-containing RPMI 1640 medium, for example 1X liquid 041-01875 (synthetic culture medium from Gibeo according to Moore, Gerner and Franklin, H.A. (1967), J.A.M.A. 199; 519) with a concentration of 2×10^3 -1×10^4 infectious units (PFU)/ml.
2. The cell lines Jurkat Clone E6-1, Sup T1 and HeLa CT4.

[3] = test system: HIV-1 in permanently infected Molt4 cells; assay: Plaque test, tumor cell line (Molt4) permanently infected with HIV-1; assay type: cell-based
Text: (§1) The inhibitory effect is shown in a cell line permanently infected with HIV-1.
(§2) 1. Negative (non infected) cells (for example Molt 4) are removed from the culture bottle with RPMI 1640 culture medium and centrifuged down in an appropriate vessel. As a basic principle, the negative cells may be the cells from any CD4 receptor-positive T-cell line. It is, for example, possible to use the following commercially available cell lines: H9, Hut78, SupT1, Jurkat, Molt4. Molt4 is for example a monoclonal T-cell line of the peripheral blood of a cancer patient. T-cell lines are derived from human tumors, for example from specific forms of leukemia. Cell lines of this type grow permanently as long as they are kept in the appropriate culture medium and CO2 concentration in an incubator at 37° C. These lines may be purchased from the American Type Culture Collection (ATCC).
2. These Molt4 cells are then resuspended (taken up) in highly virus-containing culture medium (RPMI 1640+10% fetal calf serum) placed in a culture flask and incubated (cultivated) for ca. 12 hours in an incubator at 37° C. and 5% CO2. This infects part (depending on the concentration of the infectious virus) of the cells.
3. After 12 hours the cells are again separated by centrifugation and resuspended in fresh medium (RPMI 1640, containing no virus) and cultivated for ca. 4 weeks in an incubator.
4. Once every week the medium is completely replaced (separated by centrifugation, resuspended, etc.) and negative, non-infected cells are added.
5. After ca. 4 weeks 80-100% of the cells are infected=permanently infected cell line. The infection is for example determined using immunofluorescence. The cells infected in this manner produce HIV in a titer range of about 10^5 -10^6 infectious units (PFU). The tumor cell line permanently infected in this manner (Molt4) is treated for three weeks with 70 μg of α-lipoic acid/ml. Every three days culture medium and α-lipoic acid are replaced and the activity of the virus determined in the reverse transcriptase and plaque test. […]

[4] = test system: HIV-1 in permanently infected Molt4 cells; assay: Reverse transcriptase test, tumor cell line (Molt4) permanently infected with HIV-1; assay type: cell-based; details: 70 μg/ml, FIG. 1
Text: as §1, §2
2. These Molt4 cells are then resuspended (taken up) in highly virus-containing culture medium (RPMI 1640+10% fetal calf serum) placed in a culture flask and incubated (cultivated) for ca. 12 hours in an incubator at 37° C. and 5% CO2. […]
5. […] The infection is for example determined using immunofluorescence. […] Every three days culture medium and α-lipoic acid are replaced and the activity of the virus determined in the reverse transcriptase and plaque test. […]

[5] = test system: HIV in freshly infected Jurkat cells; assay: Plaque test, freshly infected Jurkat cells; assay type: cell-based; details: 7 days
Description: To compare both compounds, freshly split Jurkat cells were infected with HIV (8×10^3 PFU) and afterwards recombinant alpha interferon (rIF) (70 units/ml) or 35 ng/ml of α-lipoic acid was added thereto using a pipette. The experiment was concluded after 7 days in order to assess in particular the growth of the first virus generation.
Cells are taken up in fresh medium and may now be defined as being freshly infected cells. As distinct from permanently infected cells, far fewer cells are virus carriers, and therefore synchronously treated, i.e. the first and second virus generation is given off into the culture supernatant relatively at the same time on the 3rd and 7th day. These virus generations may be quantified on these days (plaque and reverse transcriptase test) and may be compared. The term "single hit kinetics" is also used in this context.
3. α-lipoic acid is added using a pipette.
Cells are cultured for 7 days in an incubator.
On day 4 and day 7 samples are withdrawn from the culture for plaque and RT assay.

[6] = test system: peripheral blood lymphocytes; assay: Proliferation rate or lethality of peripheral blood lymphocytes; assay type: cell-based; details: 70 μg/ml
plasma p24 antigen (HIV) = assay: Plasma p24 antigen level (ELISA) in HIV-infected patients; assay type: in vivo, human patients (HIV)
Description: (§3) Determination of the plasma p24 antigen level using a commercial ELISA; p24 is the designation for a structural protein of the HIV virus; ELISA (Enzyme Linked Immuno Sorbent Assay) is a test technique frequently used in virology in order to determine proteins, antigens, etc.
(§4) The following results were recorded in 4 patients in Walter Reed stage 6. Application of α-lipoic acid was, by means of infusion of an α-lipoic acid solution having the following composition: 10 ml of aqueous solution containing 250 mg of α-lipoic acid in the form of the ethylene diamine salt (=323 mg salt) as well as 1 g of 1,2-propylene glycol and 100 mg of benzyl alcohol.
Walter Reed stages: division of HIV-infected patients according to the degree of their clinical symptoms. In stage 0 no HIV virus can be detected. Stage 6 relates to the final stage of AIDS.

[7] = test system: HIV from patient lymphocytes; assay: Virus isolation with cocultivation (standard method) from patient lymphocytes; assay type: in vivo, human patients (HIV)
Description: (§5) Virus isolation with cocultivation: patient lymphocytes are cocultivated with donor lymphocytes. The virus produced by these cells (p24) is measured using an ELISA after 21 days (standard method).
as §4

[8] = test system: HIV p24 production from patient lymphocytes; assay: Virus isolation without cocultivation, p24 production of patient lymphocytes; assay type: in vivo, human patients (HIV)
Description: (§6) Virus isolation without cocultivation: the production of virus (p24) from 1×10^6 patient lymphocytes is quantitatively measured using an ELISA after 11 days. No donor lymphocytes are added in this standardized method. Virus production may be quoted in pg^1 p24/ml/200,000 cells. (Newly developed method). Cell titration: virus isolation is carried out starting from a decreasing number of patient lymphocytes (e.g. 10^6, 10^5, 10^4).
as §4

[9] = test system: HIV from patient lymphocytes; assay: Virus isolation with cell titration; assay type: in vivo, human patients (HIV)
Description: as §6, §4

infectious HIV in plasma = assay: Plasma titer (number of infectious viruses in the plasma); assay type: in vivo, human patients (HIV)
Description: (§7) Determination of the plasma titer which states the number of infectious viruses in the plasma.
as §4

[10] = Plasma level at normal oral dosage; assay type: in vivo; details: side effect-free dosage
HIV = assay: Virological markers overall in HIV-infected patients; assay type: in vivo
Description: as §3, §5, §6, §7, §4

[11] = cited from earlier work
[12] = patient 2, towards the end and after conclusion of therapy

Q: With `O=C(O)CCCCC(S)CCS` (stereo not drawn) [dihydrolipoic acid, 6,8-dimercapto-octanoic acid] as the compound, how does the LD50 [1] read?
A: The LD50 was > 200 mg/kg.

Q: What about the “inactivation of snake venom” value [2] of the same compound?
A: The value was “inactivates snake venom”.

Q: Which minimal effective concentration (HIV-1; Human immunodeficiency virus 1, same test procedure, read-out: low dose at which a virus-inhibiting effect can be demonstrated) does the source give for `O=C(O)CCCCC1CCSS1` (racemic) [α-lipoic acid] here?
A: The minimal effective concentration was 1 µg/mL.

Q: What about the activity at 35 µg/mL (HIV-1; Human immunodeficiency virus 1, single dose of 0.035 mg/ml, read-out: number of infectious viruses in cell culture supernatant (positive control 100%)) of the same compound?
A: The activity at 35 µg/mL was 0%.

Q: What about the inhibition at 70 µg/mL ([3]; Human immunodeficiency virus 1, MOLT-4, 72 h, read-out: reduction of infectious virus units) of the same compound?
A: The inhibition at 70 µg/mL was ~100%.

Q: What about the “number of infectious virus units” value ([3]; after 3 days, 70 μg/ml, FIG. 1) of the same compound?
A: Its value is “about 0”.

Q: And the development of tolerance ([3]; three weeks, 70 μg/ml)?
A: Its development of tolerance is “no sign or evidence of the development of tolerance after three weeks”.

Q: And the “time from which number of virus units produced falls” value [4]?
A: The value was ≥ 6 days.

Q: And the inhibition at 70 µg/mL ([4]; Human immunodeficiency virus 1, MOLT-4, 504 h, after three weeks, read-out: reduction of number of virus units produced)?
A: The inhibition at 70 µg/mL was 90%.

Q: What about the “inhibition of viral replication” value ([5]; infected, not pre-treated Jurkat cells, α-lipoic acid 35 ng/ml (so in the source), rIF 70 units/ml, FIG. 2 and 3) of the same compound?
A: The value was “comparable inhibition”.

Q: What about the “inhibition in the plaque test” value ([5]; α-lipoic acid 35 ng/ml (so in the source) vs rIF 70 units/ml, FIG. 3) of the same compound?
A: Its value is “clearer”.

Q: What about the “proliferation rate or lethality of peripheral blood lymphocytes” value [6] of the same compound?
A: Its value is “not substantially affected”.

Q: What about the “plasma p24 antigen level, fraction of initial value” (plasma p24 antigen (HIV); cases 1 and 2, ca. 14 days, summary) of the same compound?
A: The value was 1/10.

Q: What about the “plasma p24 antigen level” value (plasma p24 antigen (HIV); patient 1, infusion, 14 days after commencement of therapy, before therapy 0.350 ng/ml) of the same compound?
A: The value was 0.05 ng/mL.

Q: And the “plasma p24 antigen level” value (plasma p24 antigen (HIV); patient 1, infusion, day 29, before therapy 0.350 ng/ml)?
A: The value was 0.025 ng/mL.

Q: What about the “plasma p24 antigen level” value (plasma p24 antigen (HIV); patient 1, infusion, until end of therapy (58 days), before therapy 0.350 ng/ml) of the same compound?
A: Its value is 0.25 ng/mL.

Q: What about the “plasma p24 antigen level, initial fall” value (plasma p24 antigen (HIV); patient 2, infusion, prior to treatment 0.4 ng/ml) of the same compound?
A: Its value is “barely the 10-fold value”.

Q: What about the “plasma p24 antigen level” value (plasma p24 antigen (HIV); patient 3) of the same compound?
A: Its value is “always negative”.

Q: And the “plasma p24 antigen level, change after end of therapy” value (plasma p24 antigen (HIV); patient 4, after end of therapy)?
A: Its value is “again rose to the initial values”.

Q: And the “plasma p24 antigen level” value (plasma p24 antigen (HIV); patient 4, infusion, up to the 18th day of therapy, before/at beginning of therapy 0.070 ng/ml)?
A: The value was 0.005 ng/mL.

Q: What about the “virus isolation from patient lymphocytes” value ([7]; cases 2 and 3, summary) of the same compound?
A: Its value is “totally negative”.

Q: What about the “virus isolation (standard method)” value ([7]; patient 1, throughout the entire therapy period) of the same compound?
A: The value was “positive”.

Q: What about the virus isolation [7, 12] of the same compound?
A: Its virus isolation is “repeatedly negative”.

Q: What about the “virus production in virus isolations from patient lymphocytes” value ([8]; cases 2, 3 and 4, summary) of the same compound?
A: The value was “markedly lower virus production”.

Q: What about the “production of p24 antigen, change after end of therapy” value ([8]; patient 3, after the end of therapy) of the same compound?
A: Its value is “rose again slowly”.

Q: And the “production of p24 antigen” value ([8]; patient 3, by day 28, before therapy about 10)?
A: Its value is 0 pg/ml 200,000 cells.

Q: What about the “production of p24 antigen, change” value ([8]; patient 3, day 5 of therapy, before therapy about 10 pg/ml 200,000 cells) of the same compound?
A: Its value is “doubled”.

Q: And the “p24 production, change after end of therapy” value ([8]; patient 4, after end of therapy, also treated with AZT)?
A: Its value is “did not rise significantly”.

Q: What about the “p24 production/ml/200,000 cells, fall” value ([8]; patient 4, up to the end of therapy, before therapy 8 pg/ml, also being treated with AZT at this time) of the same compound?
A: The value was 75%.

Q: And the “cell titer, number of cells from which virus could be cultivated” value ([9]; patient 2, during treatment, before treatment 10^3 cells)?
A: Its value is 10^5 cells.

Q: What about the “cell titer, fall” value ([9]; patient 2, during treatment, before treatment 1000) of the same compound?
A: Its value is “fell by two orders of magnitude”.

Q: And the “results after conclusion of therapy” value ([9]; patient 4, after conclusion of therapy)?
A: The value was “deteriorated once again”.

Q: What about the virus detection ([9]; patient 4, end of therapy (in the current range), before therapy virus clearly detected in 2×10^6 cells) of the same compound?
A: Its virus detection is “hardly any viruses could be detected”.

Q: What about the positive plasma titers (infectious HIV in plasma; cases 2 and 4, in the course of therapy, summary) of the same compound?
A: Its positive plasma titers is 0.

Q: What about the plasma titrations (infectious HIV in plasma; patient 3) of the same compound?
A: Its plasma titrations is “always negative”.

Q: What about the plasma titer (infectious HIV in plasma; patient 4, during therapy, before therapy 10) of the same compound?
A: Its plasma titer is 0.

Q: What about the LD50 [1] of the same compound?
A: The LD50 was > 400 mg/kg.

Q: What about the “factor by which 70 μg/ml is above the plasma levels” value [10] of the same compound?
A: The value was 10-20 times.

Q: What about the virus markers (HIV; [12]) of the same compound?
A: Its virus markers is “drastic fall in all virus markers”.

Q: And the “improvement in virological markers” value (HIV; patients with clearly measurable virological markers)?
A: Its value is “marked improvement in these parameters”.

Q: What about the pharmacological properties ([11]; racemate) of the same compound?
A: Its pharmacological properties is “anti-inflammatory, antinociceptive (analgesic) and cytoprotective properties”.

Q: And the “effect in fungus poisoning / coenzyme and growth factor roles” value ([11]; α-lipoic acid racemate)?
A: The value was “acts as co-enzyme in many enzymatic reactions, constitutes a growth factor for certain bacteria and protozoas and is used in death-head fungus poisoning”.
